# Reference: ChEMBL document CHEMBL1201862, “PubChem BioAssay data set” (2004)
#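 Briefly, cells in 96-well plates were exposed to five compound concentrations for 48 h, and endpoints were estimated by linear interpolation. GI50 = concentration required for 50% inhibition of growth.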 Active and inactive are the calls of the source. No stated cut-off is given here; in the data, active = GI50 up to about 1.1 µM and inactive = higher.
# Columns and labels:
# Assay in all cases: growth of human tumour cells (NCI), 48 h
# [1] = system: 786-0
# [2] = system: A549
# [3] = system: ACHN
# [4] = system: DU-145
# [5] = system: HCT-15
# [6] = system: HL-60
# [7] = system: LOX IMVI
# [8] = system: M14
# [9] = system: MDA-N
# [10] = system: NCI-H460
# [11] = system: NCI-H522
# [12] = system: OVCAR-4
# [13] = system: OVCAR-8
# [14] = system: RPMI-8226
# [15] = system: RXF 393
# [16] = system: SF-295
# [17] = system: SNB-19
# [18] = system: T47D
# [19] = system: TK-10
Compound,GI50 [1],GI50 [2],GI50 [3],GI50 [4],GI50 [5] [µM],GI50 [6],GI50 [7],GI50 [8],GI50 [9],GI50 [10],GI50 [11],GI50 [12],GI50 [13],GI50 [14],GI50 [15],GI50 [16],GI50 [17],GI50 [18],GI50 [19]
O=C(c1ccc([N+](=O)[O-])cc1)N1CCCC1,> 100 µM (inactive),> 100 µM (inactive),> 100 µM (inactive),> 100 µM (inactive),> 100,> 100 µM (inactive),> 100 µM (inactive),> 100 µM (inactive),> 100 µM (inactive),> 100 µM (inactive),> 100 µM (inactive),> 100 µM (inactive),> 100 µM (inactive),> 100 µM (inactive),> 100 µM (inactive),> 100 µM (inactive),> 100 µM (inactive),> 100 µM (inactive),86.1 µM (inactive)
N#CC(NCCO)=C1C(=O)c2ccccc2C1=O,> 100 µM (inactive),> 100 µM (inactive),> 100 µM (inactive),> 100 µM (inactive),> 100,> 100 µM (inactive),> 100 µM (inactive),> 100 µM (inactive),> 100 µM (inactive),> 100 µM (inactive),> 100 µM (inactive),> 100 µM (inactive),> 100 µM (inactive),> 100 µM (inactive),> 100 µM (inactive),> 100 µM (inactive),> 100 µM (inactive),> 100 µM (inactive),> 100 µM (inactive)
CNC1C(O)C(NC)C2OC3(O)C(=O)CC(C)OC3OC2C1O (stereo not given),> 100 µM (inactive),> 100 µM (inactive),> 100 µM (inactive),> 100 µM (inactive),> 100,> 100 µM (inactive),> 100 µM (inactive),> 100 µM (inactive),> 100 µM (inactive),> 100 µM (inactive),> 100 µM (inactive),> 100 µM (inactive),> 100 µM (inactive),> 100 µM (inactive),> 100 µM (inactive),> 100 µM (inactive),> 100 µM (inactive),> 100 µM (inactive),> 100 µM (inactive)
COc1cc(/C=N/N=C2NCCCCN2)ccc1O,> 100 µM (inactive),> 100 µM (inactive),> 100 µM (inactive),> 100 µM (inactive),> 100,> 100 µM (inactive),> 100 µM (inactive),> 100 µM (inactive),> 100 µM (inactive),> 100 µM (inactive),> 100 µM (inactive),> 100 µM (inactive),> 100 µM (inactive),> 100 µM (inactive),> 100 µM (inactive),61.7 µM (inactive),> 100 µM (inactive),53.8 µM (inactive),> 100 µM (inactive)
O=C(NCCCN(CCCCN(CCCNC(=O)C(F)(F)F)CCCc1ccccc1)CCCc1ccccc1)C(F)(F)F,1.25 µM (inactive),1.82 µM (inactive),2 µM (inactive),2 µM (inactive),1.44,2.93 µM (inactive),1.85 µM (inactive),1.76 µM (inactive),1.65 µM (inactive),1.87 µM (inactive),1.78 µM (inactive),5.78 µM (inactive),1.74 µM (inactive),2.63 µM (inactive),1.3 µM (inactive),1.81 µM (inactive),2 µM (inactive),1.85 µM (inactive),1.91 µM (inactive)
CC(=O)C1=C(C)N(c2ccccc2)C2(O)C3=C(C(=O)c4ccccc4C3=O)C(O)=CC12Cl (stereo not given),4.63 µM (inactive),7.29 µM (inactive),5.11 µM (inactive),11.2 µM (inactive),3.73,2.9 µM (inactive),3.56 µM (inactive),7.03 µM (inactive),2.94 µM (inactive),5.26 µM (inactive),2.55 µM (inactive),3.08 µM (inactive),4.08 µM (inactive),0.855 µM (active),5.85 µM (inactive),11.1 µM (inactive),5.36 µM (inactive),35.2 µM (inactive),14.4 µM (inactive)
CC(=O)Nc1cc2cc(NS(=O)(=O)c3cc(C(F)(F)F)cc(C(F)(F)F)c3)ccc2oc1=O,72.3 µM (inactive),> 100 µM (inactive),> 100 µM (inactive),> 100 µM (inactive),> 100,> 100 µM (inactive),98.6 µM (inactive),> 100 µM (inactive),> 100 µM (inactive),> 100 µM (inactive),> 100 µM (inactive),> 100 µM (inactive),34.3 µM (inactive),> 100 µM (inactive),0.016 µM (active),> 100 µM (inactive),47.2 µM (inactive),> 100 µM (inactive),> 100 µM (inactive)
CC1OC(OCC2OC(Oc3ccc(C4CC(=O)c5c(O)cc(O)cc5O4)cc3O)C(O)C(O)C2O)C(O)C(O)C1O (stereo not given),> 100 µM (inactive),> 100 µM (inactive),> 100 µM (inactive),> 100 µM (inactive),> 100,> 100 µM (inactive),> 100 µM (inactive),> 100 µM (inactive),> 100 µM (inactive),> 100 µM (inactive),> 100 µM (inactive),> 100 µM (inactive),> 100 µM (inactive),> 100 µM (inactive),> 100 µM (inactive),> 100 µM (inactive),> 100 µM (inactive),> 100 µM (inactive),> 100 µM (inactive)
Clc1ccc(COC(Cn2ccnc2)c2ccc(Cl)cc2Cl)cc1 (stereo not given) [ECONAZOLE],13.1 µM (inactive),11.2 µM (inactive),15.5 µM (inactive),16.5 µM (inactive),12.7,6.87 µM (inactive),6.98 µM (inactive),15 µM (inactive),14.1 µM (inactive),11.9 µM (inactive),4.57 µM (inactive),11.8 µM (inactive),11.4 µM (inactive),8.26 µM (inactive),14.9 µM (inactive),10.8 µM (inactive),14.3 µM (inactive),6.9 µM (inactive),14 µM (inactive)
O=C(Cl)C1=C(c2ccccc2)C1c1ccccc1 (stereo not given),> 100 µM (inactive),> 100 µM (inactive),> 100 µM (inactive),> 100 µM (inactive),> 100,> 100 µM (inactive),> 100 µM (inactive),> 100 µM (inactive),> 100 µM (inactive),> 100 µM (inactive),> 100 µM (inactive),> 100 µM (inactive),> 100 µM (inactive),> 100 µM (inactive),> 100 µM (inactive),> 100 µM (inactive),> 100 µM (inactive),> 100 µM (inactive),> 100 µM (inactive)
O=C1Nc2ccccc2/C1=N/Nc1c(F)c(F)c(F)c(F)c1F,22 µM (inactive),> 100 µM (inactive),18 µM (inactive),67 µM (inactive),29.9,2.77 µM (inactive),31.2 µM (inactive),> 100 µM (inactive),32.2 µM (inactive),93.3 µM (inactive),14.4 µM (inactive),82 µM (inactive),41.9 µM (inactive),3.83 µM (inactive),53.8 µM (inactive),> 100 µM (inactive),> 100 µM (inactive),22 µM (inactive),22 µM (inactive)
CCCCCCCCCCCNC=O,> 100 µM (inactive),51.3 µM (inactive),40.5 µM (inactive),84.7 µM (inactive),27.4,15.1 µM (inactive),51.9 µM (inactive),63 µM (inactive),56.6 µM (inactive),53.7 µM (inactive),24.5 µM (inactive),45.3 µM (inactive),58.1 µM (inactive),28.1 µM (inactive),48.8 µM (inactive),36.9 µM (inactive),> 100 µM (inactive),39.2 µM (inactive),37.7 µM (inactive)
O=Cc1ccc2c(c1)CC1(C2)Cc2ccc3c(c2C1)CCC3 (stereo not given),14.4 µM (inactive),37.8 µM (inactive),32.1 µM (inactive),22.1 µM (inactive),8.51,3.75 µM (inactive),4.73 µM (inactive),7 µM (inactive),2.19 µM (inactive),17.2 µM (inactive),34.8 µM (inactive),10.8 µM (inactive),13.1 µM (inactive),6.47 µM (inactive),11.2 µM (inactive),5.85 µM (inactive),7.08 µM (inactive),18.2 µM (inactive),16.6 µM (inactive)
CC(C)(C)OC(=O)c1ccc(NCC2=CC(=O)C=CC2=O)cc1,9.35 µM (inactive),18.1 µM (inactive),10.1 µM (inactive),16.1 µM (inactive),7.18,1.03 µM (active),10.7 µM (inactive),6.38 µM (inactive),12.5 µM (inactive),23.6 µM (inactive),1.63 µM (inactive),8.85 µM (inactive),13 µM (inactive),2.48 µM (inactive),11.4 µM (inactive),23 µM (inactive),15.1 µM (inactive),1.95 µM (inactive),9.25 µM (inactive)
CN1CCN(c2ccc3[nH]c(-c4ccc5[nH]c(-c6ccc(N(C)CCCl)cc6)nc5c4)nc3c2)CC1,0.13 µM (active),0.286 µM (active),0.942 µM (active),0.183 µM (active),12.6,< 0.01 µM (active),0.0311 µM (active),1.08 µM (active),0.226 µM (active),0.222 µM (active),0.0163 µM (active),0.305 µM (active),0.247 µM (active),1.62 µM (inactive),0.128 µM (active),1.76 µM (inactive),0.0538 µM (active),0.174 µM (active),2.87 µM (inactive)
